The target of one experiment is ROCK2 (Homo sapiens (Human), UniProt O75116). Kind of experiment: ROCK assay (peptide substrate phosphorylation, LABCHIP 3000 Reader). Format: biochemical. How it is done: Compounds were dissolved in DMSO so that the final concentration of DMSO was <2%, and the reaction was initiated with Rho kinase variants. After incubation, the reaction was terminated by the addition of EDTA and the phosphorylated and non-phosphorylated peptides separated using a LABCHIP® 3000 Reader (Caliper Life Sciences). […] Compounds were tested in dose-response format, and the inhibition of kinase activity was calculated at each concentration of compound.

Another experiment has as its system rat stroke model. The settings on record: in vivo; cited from earlier work.
The subject of experiment [1] is IL-1 beta-induced coronary stenosis. To be noted: long term treatment; cited from earlier work.
Setting [2] is: 5 μM ATP, 1.5 μM peptide substrate.

The values below come from patent US10112939B2, “Tied-back benzamide derivatives as potent rock inhibitors” (Bristol-Myers Squibb Company, priority 2014, dated 2018).

Values joined by “and” are separate entries in the source; they are usually repeats but may differ in a detail not shown here. Equal values may be shown once. Read-outs that look alike come from different tables or passages of the source.

Sequence of ROCK2 (O75116 whole entry, species assumed): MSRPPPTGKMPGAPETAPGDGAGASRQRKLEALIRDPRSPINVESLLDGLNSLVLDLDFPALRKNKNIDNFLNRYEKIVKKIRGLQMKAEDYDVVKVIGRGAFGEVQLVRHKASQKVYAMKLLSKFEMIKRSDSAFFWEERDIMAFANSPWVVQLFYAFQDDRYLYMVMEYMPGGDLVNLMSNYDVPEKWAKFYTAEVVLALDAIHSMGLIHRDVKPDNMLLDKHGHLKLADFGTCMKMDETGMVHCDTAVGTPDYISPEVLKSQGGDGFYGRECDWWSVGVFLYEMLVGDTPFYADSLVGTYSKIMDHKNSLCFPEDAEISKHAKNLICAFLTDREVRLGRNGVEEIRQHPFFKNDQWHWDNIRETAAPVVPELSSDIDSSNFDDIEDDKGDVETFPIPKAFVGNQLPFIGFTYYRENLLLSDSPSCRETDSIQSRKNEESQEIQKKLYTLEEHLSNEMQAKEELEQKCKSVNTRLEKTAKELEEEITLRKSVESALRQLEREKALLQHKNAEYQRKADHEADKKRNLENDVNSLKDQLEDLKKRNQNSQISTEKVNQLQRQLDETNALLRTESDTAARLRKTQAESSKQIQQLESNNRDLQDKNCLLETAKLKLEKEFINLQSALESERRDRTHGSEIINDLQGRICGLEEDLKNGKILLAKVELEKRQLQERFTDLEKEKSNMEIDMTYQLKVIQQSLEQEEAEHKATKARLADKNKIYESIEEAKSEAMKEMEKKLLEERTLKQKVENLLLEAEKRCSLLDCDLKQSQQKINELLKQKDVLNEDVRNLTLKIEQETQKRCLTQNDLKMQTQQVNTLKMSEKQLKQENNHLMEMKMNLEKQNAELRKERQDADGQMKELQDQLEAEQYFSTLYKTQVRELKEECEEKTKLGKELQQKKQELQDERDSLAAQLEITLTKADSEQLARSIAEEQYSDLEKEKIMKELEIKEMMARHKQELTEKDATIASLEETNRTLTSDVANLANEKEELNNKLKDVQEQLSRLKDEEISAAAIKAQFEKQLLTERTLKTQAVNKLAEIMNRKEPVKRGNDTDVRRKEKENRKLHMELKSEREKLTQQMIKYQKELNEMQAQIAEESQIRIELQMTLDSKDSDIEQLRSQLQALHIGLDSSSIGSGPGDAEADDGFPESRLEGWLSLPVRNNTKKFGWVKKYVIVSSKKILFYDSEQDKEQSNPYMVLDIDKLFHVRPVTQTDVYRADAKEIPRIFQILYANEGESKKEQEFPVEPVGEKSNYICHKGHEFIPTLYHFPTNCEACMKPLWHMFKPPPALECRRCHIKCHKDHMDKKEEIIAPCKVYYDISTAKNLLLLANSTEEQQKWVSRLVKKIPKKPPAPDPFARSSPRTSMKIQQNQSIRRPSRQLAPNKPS

On ROCK2 (setting [2]), `COc1cc(C(=O)N2CC(F)(F)C[C@@H]2c2cccc(C(=O)NC3CC3)c2)ccc1-c1cn[nH]c1` [Example 80, N-Cyclopropyl-3-[(2R)-4,4-difluoro-1-[3-methoxy-4-(1H-pyrazol-4-yl)benzoyl]pyrrolidin-2-yl]benzamide] yielded an IC50 of 0.0054 µM. Same read-out and setting: the same measure for `COc1cccc(C2CCCN2C(=O)c2ccc(-c3ccnc(N)c3)c(OC)c2)c1` (stereo not shown) [Example 81, 4-{2-Methoxy-4-[2-(3-methoxyphenyl)pyrrolidine-1-carbonyl]phenyl} pyridin-2-amine]: 0.158 µM. As for `COc1cccc(C2CCCN2C(=O)c2ccc(-c3ccnc4[nH]ccc34)c(OC)c2)c1` (stereo not shown) [Example 82, 1-(3-methoxy-4-{1H-pyrrolo[2,3-b]pyridin-4-yl}benzoyl)-2-(3-methoxyphenyl) pyrrolidine], on ROCK2 (setting [2]), the IC50 was 0.0568 µM. Same read-out and setting: the same measure for `COc1cccc(C2CCCN2C(=O)c2ccc(-c3ccnc(F)c3)c(OC)c2)c1` (stereo not shown) [Example 83, 2-fluoro-4-{2-methoxy-4-[2-(3-methoxyphenyl)pyrrolidine-1-carbonyl]phenyl}pyridine]: 0.153 µM; for `COc1cccc(C2CCCN2C(=O)c2ccc(-c3ccncc3F)c(OC)c2)c1` (stereo not shown) [Example 84, 3-fluoro-4-{2-methoxy-4-[2-(3-methoxyphenyl)pyrrolidine-1-carbonyl]phenyl}pyridine]: 0.0241 µM.

`COc1cc(C(=O)N2CC(OC)C[C@@H]2c2cccc(C(=O)NCC3CC3)c2)ccc1-c1cn[nH]c1` (stereo partly drawn) [Example 86, N-(Cyclopropylmethyl)-3-[(2R)-4-methoxy-1-[3-methoxy-4-(1H-pyrazol-4-yl)benzoyl]pyrrolidin-2-yl]benzamide]: the IC50 at ROCK2 (setting [2]) stood at 0.00542 µM. Still for that read-out and setting: the same measure for `COc1cc(C(=O)N2CC(OC)C[C@@H]2c2cccc(C(=O)N(C)CC3CC3)c2)ccc1-c1cn[nH]c1` (stereo partly drawn) [Example 87, N-(Cyclopropylmethyl)-3-[(2R)-4-methoxy-1-[3-methoxy-4-(1H-pyrazol-4-yl)benzoyl]pyrrolidin-2-yl]-N-methylbenzamide]: 0.461 µM.

Regarding `COc1cc(C(=O)N2C[C@](C)(O)C[C@@H]2c2cccc(C(=O)NCC3CC3)c2)ccc1-c1cn[nH]c1` [Example 88, N-(Cyclopropylmethyl)-3-[(2R,4R)-4-hydroxy-1-[3-methoxy-4-(1H-pyrazol-4-yl)benzoyl]-4-methylpyrrolidin-2-yl]benzamide], the IC50 at ROCK2 (setting [2]) came to 0.0106 µM.

For the compound `COc1cc(C(=O)N2CC(OC(C)=O)C[C@@H]2c2cccc(S(C)(=O)=O)c2)ccc1-c1cn[nH]c1` (stereo partly drawn) [Example 89, (5R)-5-(3-Methanesulfonylphenyl)-1-[3-methoxy-4-(1H-pyrazol-4-yl)benzoyl]pyrrolidin-3-yl acetate], the 50% inhibitory concentration (IC50) on ROCK2 (setting [2]) is 0.784 µM. Still for that read-out and setting: the same measure for `COc1cc(C(=O)N2CC(O)C[C@@H]2c2cccc(S(C)(=O)=O)c2)ccc1-c1cn[nH]c1` (stereo partly drawn) [Example 90, (5R)-5-(3-Methanesulfonylphenyl)-1-[3-methoxy-4-(1H-pyrazol-4-yl)benzoyl]pyrrolidin-3-ol]: 0.086 µM.

As for `COc1cc(C(=O)N2C[C@H](O)C[C@@H]2c2ccccc2F)ccc1-c1cn[nH]c1` [Example 92, (3R,5R)-5-(2-Fluorophenyl)-1-[3-methoxy-4-(1H-pyrazol-4-yl)benzoyl] pyrrolidin-3-ol], at ROCK2 (setting [2]), half-maximal inhibition (IC50) was put at 0.00803 µM. As to `COc1cc(C(=O)N2C[C@@H](O)C[C@@H]2c2ccccc2F)ccc1-c1cn[nH]c1` [Example 93, (3S,5R)-5-(2-Fluorophenyl)-1-[3-methoxy-4-(1H-pyrazol-4-yl)benzoyl] pyrrolidin-3-ol], the IC50 against ROCK2 (setting [2]) was 0.00452 µM. At ROCK2 (setting [2]), `O=C(c1ccc(-c2cn[nH]c2)c(OC(F)F)c1)N1C[C@H](O)C[C@@H]1c1ccccc1F` [Example 94, (3R,5R)-1-[3-(Difluoromethoxy)-4-(1H-pyrazol-4-yl)benzoyl]-5-(2-fluorophenyl)pyrrolidin-3-ol] gave an IC50 of 0.0733 µM. Still for that read-out and setting: the same measure for `O=C(c1ccc(-c2cn[nH]c2)c(OC(F)F)c1)N1C[C@@H](O)C[C@@H]1c1ccccc1F` [Example 95, (3S,5R)-1-[3-(Difluoromethoxy)-4-(1H-pyrazol-4-yl)benzoyl]-5-(2-fluorophenyl)pyrrolidin-3-ol]: 0.0441 µM and 0.0284 µM.

`N#Cc1cc(C(=O)N2C[C@H](O)C[C@@H]2c2ccccc2F)ccc1-c1cn[nH]c1` [Example 96, 5-[(2R,4R)-2-(2-Fluorophenyl)-4-hydroxypyrrolidine-1-carbonyl]-2-(1H-pyrazol-4-yl)benzonitrile]: the 50% inhibitory concentration (IC50) on ROCK2 stood at 0.667 µM.

`N#Cc1cc(C(=O)N2C[C@H](O)C[C@@H]2c2ccccc2F)ccc1-c1cn[nH]c1` [Example 97, 5-[(2R)-2-(2-Fluorophenyl)-4-hydroxypyrrolidine-1-carbonyl]-2-(1H-pyrazol-4-yl)benzonitrile] gave an IC50 against ROCK2 (setting [2]) of 0.721 µM. In turn, `COc1cc(-c2cn[nH]c2)ccc1C(=O)N1C[C@H](O)C[C@@H]1c1ccccc1F` [Example 98, (3R,5R)-5-(2-Fluorophenyl)-1-[2-methoxy-4-(1H-pyrazol-4-yl)benzoyl] pyrrolidin-3-ol] returned an IC50 against ROCK2 (setting [2]) of 0.723 µM. Still for that read-out and setting: the same measure for `CS(=O)(=O)c1cccc([C@H]2CC(O)CN2C(=O)c2ccc(-c3ccnc4[nH]ccc34)cc2)c1` (stereo partly drawn) [Example 99, (5R)-5-(3-methanesulfonyl-phenyl)-1-(4-{1H-pyrrolo [2,3-b]pyridin-4-yl}benzoyl) pyrrolidin-3-ol]: 0.614 µM; for `COc1cccc(C2CCCN2C(=O)c2ccc(-c3cn[nH]c3)c(C(C)O)c2)c1` (stereo not shown) [Example 100, 1-{5-[2-(3-Methoxyphenyl)pyrrolidine-1-carbonyl]-2-(1H-pyrazol-4-yl)phenyl}ethan-1-ol]: 0.228 µM; for `CCc1cc(C(=O)N2CC(O)C[C@@H]2c2ccccc2F)ccc1-c1cn[nH]c1` (stereo partly drawn) [Example 101, (5R)-1-[3-Ethyl-4-(1H-pyrazol-4-yl)benzoyl]-5-(2-fluorophenyl) pyrrolidin-3-ol]: 0.0651 µM. Same read-out and setting: the same measure for `COc1cc(C(=O)N2CCCC2c2cccc(OCC(F)F)c2)ccc1-c1cn[nH]c1` (stereo not shown) [Example 102, 4-(4-{2-[3-(2,2-Difluoroethoxy)phenyl]pyrrolidine-1-carbonyl}-2-methoxyphenyl)-1H-pyrazole]: 0.411 µM; for `COc1cc(C(=O)N2CCCC2c2cccc(OCc3cc(C)on3)c2)ccc1-c1cn[nH]c1` (stereo not shown) [Example 103, 3-(3-{1-[3-Methoxy-4-(1H-pyrazol-4-yl)benzoyl]pyrrolidin-2-yl}phenoxymethyl)-5-methyl-1,2-oxazole]: 0.062 µM; for `COc1cc(C(=O)N2CCCC2c2cccc(OC3CCN(C)CC3)c2)ccc1-c1cn[nH]c1` (stereo not shown) [Example 104, 4-(3-{1-[3-Methoxy-4-(1H-pyrazol-4-yl)benzoyl]pyrrolidin-2-yl}phenoxy)-1-methylpiperidine]: 1.39 µM. `COc1cc(C(=O)N2CCCC2c2cccc(NC3CCN(C)CC3)c2)ccc1-c1cn[nH]c1` (stereo not shown) [Example 105, N-(3-{1-[3-Methoxy-4-(1H-pyrazol-4-yl)benzoyl]pyrrolidin-2-yl}phenyl)-1-methylpiperidin-4-amine] registered an IC50 against ROCK2 (setting [2]) of 0.278 µM. On the same count and under the same terms, the same measure for `COc1cc(C(=O)N2C[C@@H](N)C[C@@H]2c2ccccc2F)ccc1-c1cn[nH]c1` [Example 106, (3S,5R)-5-(2-Fluorophenyl)-1-[3-methoxy-4-(1H-pyrazol-4-yl)benzoyl] pyrrolidin-3-amine]: 0.00087 µM; for `COc1cc(C(=O)N2C[C@H](N)C[C@@H]2c2ccccc2F)ccc1-c1cn[nH]c1` [Example 107, (3R,5R)-5-(2-Fluorophenyl)-1-[3-methoxy-4-(1H-pyrazol-4-yl)benzoyl] pyrrolidin-3-amine]: 0.00165 µM; for `COc1cc(C(=O)N2CC(O)C[C@@H]2c2ccc3cn[nH]c3c2)ccc1-c1cn[nH]c1` (stereo partly drawn) [Example 108, (5R)-5-(1H-Indazol-6-yl)-1-[3-methoxy-4-(1H-pyrazol-4-yl)benzoyl] pyrrolidin-3-ol]: 0.00765 µM. Still for that read-out and setting: the same measure for `COc1cc(C(=O)N2CC(O)C[C@@H]2c2ccc3c(I)n[nH]c3c2)ccc1-c1cn[nH]c1` (stereo partly drawn) [Example 109, (5R)-5-(3-Iodo-1H-indazol-6-yl)-1-[3-methoxy-4-(1H-pyrazol-4-yl)benzoyl]pyrrolidin-3-ol]: 0.902 µM; for `COc1cc(C(=O)N2CCC[C@@H]2C(=O)Nc2ccccc2)ccc1-c1cn[nH]c1` [Example 110, (2R)-1-[3-Methoxy-4-(1H-pyrazol-4-yl)benzoyl]-N-phenylpyrrolidine-2-carboxamide]: 0.463 µM. On to `COc1cc(C(=O)N2CCC[C@@H]2C(=O)N2CCc3ccccc32)ccc1-c1cn[nH]c1` [Example 111, 1-[(2R)-1-[3-Methoxy-4-(1H-pyrazol-4-yl)benzoyl]pyrrolidine-2-carbonyl]-2,3-dihydro-1H-indole], for which half-maximal inhibition at ROCK2 (IC50) required 0.504 µM. This counts as sub-micromolar. Consider `CCNS(=O)(=O)c1cccc([C@H]2CCCN2C(=O)c2ccc(-c3cn[nH]c3)c(OC)c2)c1` [Example 112, N-Ethyl-3-[(2R)-1-[3-methoxy-4-(1H-pyrazol-4-yl)benzoyl]pyrrolidin-2-yl]benzene-1-sulfonamide], for which the IC50 against ROCK2 (setting [2]) turned out to be 0.0152 µM.

`O=S(=O)(c1cccc2cnccc12)N1CCCNCC1` [fasudil]: in the experiment with rat stroke model, the “infarct size and neurologic deficit” value was “reduce both the infarct size and neurologic deficit”. Besides, in experiment [1], the coronary constrictive remodeling result is reported as “promote a regression of coronary constrictive remodeling” and the coronary stenosis entry is “progressively reduce coronary stenosis”.
